Test results taken from patent publication US11724992B2 (Novartis AG, priority 2017, dated 2023).
pIC50: −log10 of the molar value. Where two headings read alike, the source gives them in different places.

System: IL-1β production in PMA-differentiated THP-1 cells
Test: IL-1β production in PMA-differentiated THP-1 cells stimulated with gramicidin (hTHP-1 assay, 2% fetal bovine serum; Procedures 1-3)
Type: cell-based, human
Conditions: class symbols, read-out: hTHP-1 IC50 (Average IC50 of compounds in hTHP-1 assay)
In short: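 Readout is HTRF of IL-1β in cell-free supernatant after 2 h gramicidin (5 μM) challenge. Cells: THP-1 differentiated with PMA 20 ng/ml for 16-18 h, plated 50,000/well in 2% FBS RPMI, exposed to compound 1 h beforehand at final 100–0.0017 μM, DMSO 0.37%.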

[1] = hTHP-1 assay containing 2% fetal bovine serum
[2] = Homo sapiens, THP-1, hTHP-1 assay containing 2% fetal bovine serum

pIC50 [1]	pIC50 [2]	SMILES
7.40 to 8.10	–	CC(C)(O)c1csc(S(N)(=O)=NC(=O)Nc2c3c(cc4c2OCC4)CCC3)n1 (single isomer, unassigned) [Example 354, (R) or (S)-4-(2-hydroxypropan-2-yl)-N′-((3,5,6,7-tetrahydro-2H-indeno[5,6-b]furan-8-yl)carbamoyl)thiazole-2-sulfonimidamide]
6.00 to 6.70	–	Cc1cc(S(N)(=O)=NC(=O)Nc2c(C(C)C)cc(OC(F)F)cc2C(C)C)sc1C(C)(C)O (single isomer, unassigned) [Example 172]
6.70 to 7.40	–	CC(C)(O)c1cnc(S(N)(=O)=NC(=O)Nc2c3c(cc4c2OCC4)CCC3)s1 (single isomer, unassigned) [Example 350, (R) or (S)-5-(2-hydroxypropan-2-yl)-N′-((3,5,6,7-tetrahydro-2H-indeno[5,6-b]furan-8-yl)carbamoyl)thiazole-2-sulfonimidamide]
7.40 to 8.10	–	[2H]C1([2H])CCc2c1cc1c(c2NC(=O)N=S(N)(=O)c2cnc(C(C)(C)O)s2)CCC1([2H])[2H] (single isomer, unassigned) [Example 423, (R) or (S)-N′-((1,2,3,5,6,7-hexahydro-s-indacen-4-yl-1,1,7,7-d4)carbamoyl)-2-(2-hydroxypropan-2-yl)thiazole-5-sulfonimidamide]
6.00 to 6.70	–	CC(C)c1cc(C#N)c(F)c(C(C)C)c1NC(=O)N=S(N)(=O)c1cnc(C(C)(O)CO)s1 (centres unmarked) [Example 72, N′-((4-cyano-3-fluoro-2,6-diisopropylphenyl)carbamoyl)-2-(1,2-dihydroxypropan-2-yl)thiazole-5-sulfonimidamide]
6.00 to 6.70	–	CC(C)c1cc(C#N)cc(C(C)C)c1NC(=O)N=S(N)(=O)c1sc(C(C)(C)O)cc1F (single isomer, unassigned) [Example 183]
6.70 to 7.40	–	Cc1oc(S(N)(=O)=NC(=O)Nc2c3c(cc4c2CCC4C)CCC3)cc1C(C)(C)O (single isomer, unassigned) [Example 304, (R,R) or (R,S)-4-(2-hydroxypropan-2-yl)-5-methyl-N′-((3-methyl-1,2,3,5,6,7-hexahydro-s-indacen-4-yl)carbamoyl)furan-2-sulfonimidamide; resolved from example 123]
6.00 to 6.70	–	CC(C)(O)c1cc(S(N)(=O)=NC(=O)Nc2c3c(c(F)c4c2CCC4)CCC3)ccc1F (single isomer, unassigned) [Example 174]
6.70 to 7.40	–	CC(C)(O)c1cc(S(N)(=O)=NC(=O)Nc2c3c(cc4c2CCC4)CCC3)nn1-c1ccccc1 (single isomer, unassigned) [Example 309, (R) or (S)-N′-((1,2,3,5,6,7-hexahydro-s-indacen-4-yl)carbamoyl)-5-(2-hydroxypropan-2-yl)-1-phenyl-1H-pyrazole-3-sulfonimidamide]
4.52 to 5.30	–	Cc1cc(S(N)(=O)=NC(=O)Nc2c3c(cc4c2CCC4)CCC3)ccc1C(C)(C)O (single isomer, unassigned) [Example 163]
7.40 to 8.10	–	CC(C)(O)c1csc(S(N)(=O)=NC(=O)Nc2c3c(c(C#N)c4c2CCC4)CCC3)c1 (single isomer, unassigned) [Example 113]
–	7.40 to 8.10	CC(C)(O)c1csc(S(N)(=O)=NC(=O)Nc2c3c(cc4c2OCC4)CCC3)n1 (centres unmarked) [Example 263, 4-(2-Hydroxypropan-2-yl)-N′-((3,5,6,7-tetrahydro-2H-indeno[5,6-b]furan-8-yl)carbamoyl)thiazole-2-sulfonimidamide]
6.00 to 6.70	–	CC(C)(O)c1cccc(S(N)(=O)=NC(=O)Nc2c3c(cc4c2CCC4)CCC3)c1 (single isomer, unassigned) [Example 151]
6.00 to 6.70	–	Cc1oc(S(N)(=O)=NC(=O)Nc2c(C(C)C)cc(F)cc2C(C)C)cc1C(C)(C)O (single isomer, unassigned) [Example 80]
4.52 to 5.30	–	CC(C)(O)c1ccc(S(N)(=O)=NC(=O)Nc2c3c(c(F)c4c2CCC4)CCC3)c(Cl)c1 (single isomer, unassigned) [Example 159]
6.00 to 6.70	–	[2H]C([2H])([2H])C(O)(c1ncc([S@@](N)(=O)=NC(=O)Nc2c3c(cc4c2CCC4)CCC3)s1)C([2H])([2H])[2H] [Example 394, (S)-N′-((1,2,3,5,6,7-hexahydro-s-indacen-4-yl)carbamoyl)-2-(2-hydroxypropan-2-yl-1,1,1,3,3,3-d6)thiazole-5-sulfonimidamide]
5.30 to 6.00	–	CN(C)C(C)(C)c1ccc(S(N)(=O)=NC(=O)Nc2c3c(cc4c2CCC4)CCC3)cc1 (single isomer, unassigned) [Example 362, (S) or (R)-4-(2-(dimethylamino)propan-2-yl)-N′-((1,2,3,5,6,7-hexahydro-s-indacen-4-yl)carbamoyl)benzenesulfonimidamide]
–	6.00 to 6.70	CC(C)c1cc(C#N)cc(C(C)C)c1NC(=O)N=S(N)(=O)c1cc(C#N)cc(C(C)(C)O)c1 (centres unmarked) [Example 67, 3-cyano-N′-((4-cyano-2,6-diisopropylphenyl)carbamoyl)-5-(2-hydroxypropan-2-yl)benzenesulfonimidamide]
5.30 to 6.00	–	CC1CCc2c1cc1c(c2NC(=O)N=S(N)(=O)c2cnc(C(C)(C)O)s2)CCC1 (single isomer, unassigned) [Example 321, (S,S) or (S,R)-2-(2-hydroxypropan-2-yl)-N′-((1-methyl-1,2,3,5,6,7-hexahydro-s-indacen-4-yl)carbamoyl)thiazole-5-sulfonimidamide (from Example 291)]

pIC50 [1]	pIC50 [2]	SMILES
–	6.70 to 7.40	CC(C)c1cc(C#N)c(F)c(C(C)C)c1NC(=O)N=S(N)(=O)c1cnc(C(C)(C)O)s1 (centres unmarked) [Example 15, N′-(4-cyano-3-fluoro-2,6-diisopropylphenylcarbamoyl)-2-(2-hydroxypropan-2-yl)thiazole-5-sulfonimidamide]
7.40 to 8.10	–	Cc1oc(S(N)(=O)=NC(=O)Nc2c(C(C)C)cc(F)cc2C(C)C)cc1C(C)(C)O (single isomer, unassigned) [Example 79]
–	6.70 to 7.40	CC(C)(O)c1ccc(S(N)(=O)=NC(=O)Nc2c3c(cc4c2CCC4)CCC3)c(F)c1 (centres unmarked) [Example 13, 2-fluoro-N′-(1,2,3,5,6,7-hexahydro-s-indacen-4-ylcarbamoyl)-4-(2-hydroxypropan-2-yl)benzenesulfonimidamide]
6.70 to 7.40	–	CC(C)(O)c1ncc(S(N)(=O)=NC(=O)Nc2c3c(cc4c2OCC4)CCC3)s1 (single isomer, unassigned) [Example 343, (R) or (S)-2-(2-hydroxypropan-2-yl)-N′-((3,5,6,7-tetrahydro-2H-indeno[5,6-b]furan-8-yl)carbamoyl)thiazole-5-sulfonimidamide]
4.52 to 5.30	–	CC(C)c1cc(F)cc(C(C)C)c1NC(=O)N=S(N)(=O)c1ccc(C(C)(C)O)s1 (single isomer, unassigned) [Example 157]
6.00 to 6.70	–	CC(C)(O)c1ncc(S(N)(=O)=NC(=O)Nc2c3c(c(C#N)c4c2CCC4)CCC3)s1 (single isomer, unassigned) [Example 147]
6.70 to 7.40	–	[2H]C1([2H])CCc2c1cc1c(c2NC(=O)N=S(N)(=O)c2cnc(C(C)(C)O)s2)CCC1([2H])[2H] (centres unmarked) [Example 228, N′-((1,2,3,5,6,7-hexahydro-s-indacen-4-yl-1,1,7,7-d4)carbamoyl)-2-(2-hydroxypropan-2-yl)thiazole-5-sulfonimidamide]
6.70 to 7.40	–	Cc1oc(S(N)(=O)=NC(=O)Nc2c3c(cc4c2CCC4C)CCC3)cc1C(C)(C)O (single isomer, unassigned) [Example 123]
4.52 to 5.30	–	CC(C)c1c(F)c(C#N)cc(C2CC2)c1NC(=O)N=S(N)(=O)c1cnc(C(C)(C)O)s1 (single isomer, unassigned) [Example 107]
–	7.40 to 8.10	CC(C)(O)c1cc(F)c(S(N)(=O)=NC(=O)Nc2c3c(c(F)c4c2CCC4)CCC3)s1 (centres unmarked) [Example 30, 3-fluoro-N′-(8-fluoro-1,2,3,5,6,7-hexahydro-s-indacen-4-ylcarbamoyl)-5-(2-hydroxypropan-2-yl)thiophene-2-sulfonimidamide]
6.70 to 7.40	–	CC(C)c1cc(F)cc(C(C)C)c1NC(=O)N=S(N)(=O)c1ncc(C(C)(C)O)s1 (single isomer, unassigned) [Example 139]
6.00 to 6.70	–	CC(C)c1cc(C#N)cc(C(C)C)c1NC(=O)N=S(N)(=O)c1cc(C#N)cc(C(C)(C)O)c1 (single isomer, unassigned) [Example 184]
4.52 to 5.30	–	CNS(=O)(=NC(=O)Nc1c2c(cc3c1CCC3)CCC2)c1cnc(C(C)(C)O)s1 (single isomer, unassigned) [Example 373, (R) or (S)-N′-((1,2,3,5,6,7-hexahydro-s-indacen-4-yl)carbamoyl)-2-(2-hydroxypropan-2-yl)-N-methylthiazole-5-sulfonimidamide]
–	7.40 to 8.10	Cc1nc(C(C)(C)O)sc1S(N)(=O)=NC(=O)Nc1c2c(cc3c1CCC3)CCC2 (centres unmarked) [Example 53, N′-((1,2,3,5,6,7-hexahydro-s-indacen-4-yl)carbamoyl)-2-(2-hydroxypropan-2-yl)-4-methylthiazole-5-sulfonimidamide]
6.70 to 7.40	–	CCc1cc(OC(F)F)cc(C(C)C)c1NC(=O)N=S(N)(=O)c1cnc(C(C)(C)O)s1 (single isomer, unassigned) [Example 97]
7.40 to 8.10	–	Cc1nc(C(C)(C)O)sc1S(N)(=O)=NC(=O)Nc1c2c(cc3c1CCC3)CCC2 (single isomer, unassigned) [Example 164]
6.00 to 6.70	–	Cc1cc(C(C)(C)O)ccc1S(N)(=O)=NC(=O)Nc1c2c(cc3c1CCC3)CCC2 (single isomer, unassigned) [Example 99]
–	6.00 to 6.70	Cc1cc(S(N)(=O)=NC(=O)Nc2c(C(C)C)cc(OC(F)F)cc2C(C)C)sc1C(C)(C)O (centres unmarked) [Example 57, N′-((4-(difluoromethoxy)-2,6-diisopropylphenyl)carbamoyl)-5-(2-hydroxypropan-2-yl)-4-methylthiophene-2-sulfonimidamide]
4.52 to 5.30	–	CC(C)c1cc(OC(F)F)cc(C(C)C)c1NC(=O)N=S(N)(=O)c1cnc(C(C)(C)O)s1 (single isomer, unassigned) [Example 112]
